Assay results taken from ChEMBL document CHEMBL5352421, “Identification of novel piperazine-tethered phthalazines as selective CDK1 inhibitors endowed with in vitro anticancer activity toward the pancreatic cancer” (Eur J Med Chem, 2022).
The source made the active and inactive calls. The rule behind the calls is not given here.

Legend:
MOLT-4 = test: Antiproliferative activity against human MOLT-4 cells assessed as growth inhibition incubated at 10 uM for 24 hrs by MTT assay relative to control; type: functional; conditions: read-out: GI
[1] = target: Cyclin-dependent kinase 1 (Homo sapiens, UniProt P06493); test: Inhibition of CDK1 (unknown origin) by FRET assay
Cyclin-dependent kinase 1, sequence (P06493 whole entry): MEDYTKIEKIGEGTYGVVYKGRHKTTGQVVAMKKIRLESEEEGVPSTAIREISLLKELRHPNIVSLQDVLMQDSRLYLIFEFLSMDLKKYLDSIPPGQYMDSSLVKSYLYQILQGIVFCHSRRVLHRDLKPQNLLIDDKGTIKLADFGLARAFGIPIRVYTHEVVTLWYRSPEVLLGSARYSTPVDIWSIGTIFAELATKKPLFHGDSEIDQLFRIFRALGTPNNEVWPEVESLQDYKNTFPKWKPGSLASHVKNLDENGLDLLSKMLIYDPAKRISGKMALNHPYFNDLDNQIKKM

MDA-PATC53 [2] = test: Downregulation of CDK1 expression in human MDA-PATC53 cells incubated at IC50 for 24 hrs by Western blotting analysis; type: functional, cell-based
[3] = target: Tyrosine-protein kinase JAK1 (Homo sapiens, UniProt P23458); test: Inhibition of JAK1 (unknown origin) by FRET assay
Tyrosine-protein kinase JAK1, sequence (P23458 whole entry): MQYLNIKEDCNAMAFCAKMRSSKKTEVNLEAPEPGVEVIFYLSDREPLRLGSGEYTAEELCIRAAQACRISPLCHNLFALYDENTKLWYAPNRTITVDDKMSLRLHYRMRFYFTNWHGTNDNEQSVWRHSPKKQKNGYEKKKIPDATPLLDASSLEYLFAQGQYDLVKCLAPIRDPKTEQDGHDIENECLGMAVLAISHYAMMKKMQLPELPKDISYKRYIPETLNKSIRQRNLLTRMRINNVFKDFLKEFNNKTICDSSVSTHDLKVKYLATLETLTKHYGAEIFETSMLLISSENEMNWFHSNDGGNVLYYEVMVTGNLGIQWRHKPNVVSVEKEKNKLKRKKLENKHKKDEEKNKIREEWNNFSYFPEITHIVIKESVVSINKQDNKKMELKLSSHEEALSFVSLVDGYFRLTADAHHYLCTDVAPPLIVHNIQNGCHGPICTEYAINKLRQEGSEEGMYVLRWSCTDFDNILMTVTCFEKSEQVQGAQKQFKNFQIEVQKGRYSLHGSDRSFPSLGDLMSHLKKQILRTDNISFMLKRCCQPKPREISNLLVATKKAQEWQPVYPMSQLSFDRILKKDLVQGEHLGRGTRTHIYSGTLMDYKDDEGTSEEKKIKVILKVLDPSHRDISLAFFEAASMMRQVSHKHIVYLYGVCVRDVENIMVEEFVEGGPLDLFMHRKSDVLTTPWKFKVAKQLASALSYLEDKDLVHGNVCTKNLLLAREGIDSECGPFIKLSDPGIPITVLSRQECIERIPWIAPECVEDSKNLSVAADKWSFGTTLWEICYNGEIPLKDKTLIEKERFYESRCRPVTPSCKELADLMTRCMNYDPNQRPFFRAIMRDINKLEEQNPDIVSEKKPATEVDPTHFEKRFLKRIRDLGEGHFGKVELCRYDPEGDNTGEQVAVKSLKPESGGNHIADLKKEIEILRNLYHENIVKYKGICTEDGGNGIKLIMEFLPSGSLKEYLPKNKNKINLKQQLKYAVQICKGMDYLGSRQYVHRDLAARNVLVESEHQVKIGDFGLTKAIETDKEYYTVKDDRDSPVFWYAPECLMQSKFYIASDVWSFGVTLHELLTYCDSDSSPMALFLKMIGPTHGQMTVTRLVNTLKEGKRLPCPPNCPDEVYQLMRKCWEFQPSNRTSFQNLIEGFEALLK

HT-29 = test: Antiproliferative activity against human HT-29 cells assessed as growth inhibition incubated at 10 uM for 24 hrs by MTT assay relative to control; type: functional; conditions: read-out: GI
[4] = target: Protein-tyrosine kinase 2-beta (Homo sapiens, UniProt Q14289); test: Inhibition of PTK2B (unknown origin) by FRET assay
Protein-tyrosine kinase 2-beta, sequence (Q14289 whole entry): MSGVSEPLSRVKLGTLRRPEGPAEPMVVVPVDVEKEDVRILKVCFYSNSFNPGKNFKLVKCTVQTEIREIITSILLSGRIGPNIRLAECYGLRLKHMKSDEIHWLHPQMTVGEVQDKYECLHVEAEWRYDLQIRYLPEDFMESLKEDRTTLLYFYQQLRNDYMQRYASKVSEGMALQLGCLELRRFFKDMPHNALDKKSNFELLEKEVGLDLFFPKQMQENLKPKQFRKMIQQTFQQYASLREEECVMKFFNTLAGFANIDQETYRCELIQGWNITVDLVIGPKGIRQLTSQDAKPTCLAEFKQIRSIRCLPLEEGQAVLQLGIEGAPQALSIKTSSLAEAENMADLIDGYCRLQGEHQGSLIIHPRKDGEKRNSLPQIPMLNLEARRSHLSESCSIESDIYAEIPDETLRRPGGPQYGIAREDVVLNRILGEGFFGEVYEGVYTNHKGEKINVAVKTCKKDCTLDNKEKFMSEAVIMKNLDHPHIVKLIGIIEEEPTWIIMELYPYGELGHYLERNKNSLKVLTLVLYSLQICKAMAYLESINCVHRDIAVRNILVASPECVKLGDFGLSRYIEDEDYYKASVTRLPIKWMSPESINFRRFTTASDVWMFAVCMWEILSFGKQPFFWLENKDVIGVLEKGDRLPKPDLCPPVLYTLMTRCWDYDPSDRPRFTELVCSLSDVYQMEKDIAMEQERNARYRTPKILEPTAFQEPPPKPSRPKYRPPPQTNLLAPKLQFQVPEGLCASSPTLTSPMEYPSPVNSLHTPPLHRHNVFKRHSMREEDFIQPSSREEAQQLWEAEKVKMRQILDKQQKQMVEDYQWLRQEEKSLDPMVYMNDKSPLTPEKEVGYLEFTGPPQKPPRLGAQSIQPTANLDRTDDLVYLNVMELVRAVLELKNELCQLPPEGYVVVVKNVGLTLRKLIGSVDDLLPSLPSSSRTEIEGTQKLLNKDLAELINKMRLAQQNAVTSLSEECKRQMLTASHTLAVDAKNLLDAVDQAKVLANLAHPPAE

[5] = Induction of cell cycle arrest in human MDA-PATC53 cells assessed as accumulation of cells at G2/M phase incubated at IC50 for 24 hrs measured by flow cytometric analysis (reference value: 9%); type: functional
[6] = Antiproliferative activity against human PL45 cells assessed as growth inhibition incubated at 10 uM for 24 hrs by MTT assay relative to control; type: functional; conditions: read-out: GI
BT-549 = test: Antiproliferative activity against human BT-549 cells assessed as growth inhibition incubated at 10 uM for 24 hrs by MTT assay relative to control; type: functional; conditions: read-out: GI
SK-MEL-1 = test: Antiproliferative activity against human SK-MEL-1 cells assessed as growth inhibition incubated at 10 uM for 24 hrs by MTT assay relative to control; type: functional; conditions: read-out: GI
KG-1 = test: Antiproliferative activity against human KG-1 cells assessed as growth inhibition incubated at 10 uM for 24 hrs by MTT assay relative to control; type: functional; conditions: read-out: GI
[7] = Antiproliferative activity against human MDA-PATC53 cells assessed as growth inhibition incubated for 24 hrs by MTT assay; type: functional, cell-based; conditions: MDA-PATC53, 24 h
[8] = Antiproliferative activity against human PL45 cells assessed as growth inhibition incubated for 24 hrs by MTT assay; type: functional, cell-based; conditions: PL45, 24 h
T84 = test: Antiproliferative activity against human T84 cells assessed as growth inhibition incubated at 10 uM for 24 hrs by MTT assay relative to control; type: functional; conditions: read-out: GI
[9] = target: Fibroblast growth factor receptor (Homo sapiens, UniProt P22607+P11362+P22455+P21802); test: Inhibition of FGFR (unknown origin) by FRET assay; type: protein assay
A-375 = test: Antiproliferative activity against human A-375 cells assessed as growth inhibition incubated at 10 uM for 24 hrs by MTT assay relative to control; type: functional; conditions: read-out: GI
[10] = Antiproliferative activity against human MDA-PATC53 cells assessed as growth inhibition incubated at 10 uM for 24 hrs by MTT assay relative to control; type: functional; conditions: read-out: GI
[11] = target: Insulin-like growth factor 1 receptor (Homo sapiens, UniProt P08069); test: Inhibition of IGF1R (unknown origin) by FRET assay
Insulin-like growth factor 1 receptor, sequence (P08069 31-736 limits assumed): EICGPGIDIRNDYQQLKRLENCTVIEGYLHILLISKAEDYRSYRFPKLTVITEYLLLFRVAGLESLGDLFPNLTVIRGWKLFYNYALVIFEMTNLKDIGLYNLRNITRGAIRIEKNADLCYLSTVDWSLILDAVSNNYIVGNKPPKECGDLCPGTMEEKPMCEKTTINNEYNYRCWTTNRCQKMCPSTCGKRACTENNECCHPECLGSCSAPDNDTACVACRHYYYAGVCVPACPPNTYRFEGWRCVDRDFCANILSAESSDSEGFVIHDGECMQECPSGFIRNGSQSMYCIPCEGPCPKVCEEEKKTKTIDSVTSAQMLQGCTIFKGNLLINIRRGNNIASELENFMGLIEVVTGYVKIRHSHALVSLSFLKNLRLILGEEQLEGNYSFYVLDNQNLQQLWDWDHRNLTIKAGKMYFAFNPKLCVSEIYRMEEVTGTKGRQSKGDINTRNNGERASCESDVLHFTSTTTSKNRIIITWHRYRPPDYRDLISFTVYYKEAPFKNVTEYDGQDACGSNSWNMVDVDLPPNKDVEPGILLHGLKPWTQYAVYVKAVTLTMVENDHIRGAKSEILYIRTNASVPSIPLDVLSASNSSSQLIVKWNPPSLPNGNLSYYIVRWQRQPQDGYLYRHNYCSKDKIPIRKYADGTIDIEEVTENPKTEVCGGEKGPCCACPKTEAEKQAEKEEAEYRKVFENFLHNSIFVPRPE
Insulin-like growth factor 1 receptor, sequence (P08069 741-1367 limits assumed): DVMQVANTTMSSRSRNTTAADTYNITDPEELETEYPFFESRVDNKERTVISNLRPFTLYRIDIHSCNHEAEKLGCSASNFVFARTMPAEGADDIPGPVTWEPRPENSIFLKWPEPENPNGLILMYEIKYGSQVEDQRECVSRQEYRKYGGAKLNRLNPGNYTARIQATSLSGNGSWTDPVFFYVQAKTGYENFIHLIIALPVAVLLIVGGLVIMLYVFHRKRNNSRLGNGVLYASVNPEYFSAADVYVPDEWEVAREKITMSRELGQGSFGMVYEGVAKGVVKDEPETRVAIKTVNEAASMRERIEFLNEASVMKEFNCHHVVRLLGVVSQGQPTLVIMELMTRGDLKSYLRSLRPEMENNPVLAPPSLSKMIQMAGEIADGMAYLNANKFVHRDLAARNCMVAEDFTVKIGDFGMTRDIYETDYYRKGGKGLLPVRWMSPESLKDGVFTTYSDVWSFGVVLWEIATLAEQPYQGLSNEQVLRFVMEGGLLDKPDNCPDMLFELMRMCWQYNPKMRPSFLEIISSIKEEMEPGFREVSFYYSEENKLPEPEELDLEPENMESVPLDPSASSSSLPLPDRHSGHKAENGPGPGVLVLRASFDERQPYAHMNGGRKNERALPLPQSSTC

[12] = Selectivity index, ratio of IC50 for CDK2 (unknown origin) to CDK1 (unknown origin)
[13] = Selectivity index, ratio of IC50 for CDK5 (unknown origin) to CDK1 (unknown origin)
[14] = target: T1, Tyrosine-protein kinase receptor UFO (Homo sapiens, UniProt P30530); test: Inhibition of AXL (unknown origin) by FRET assay
T1 sequence (P30530 whole entry): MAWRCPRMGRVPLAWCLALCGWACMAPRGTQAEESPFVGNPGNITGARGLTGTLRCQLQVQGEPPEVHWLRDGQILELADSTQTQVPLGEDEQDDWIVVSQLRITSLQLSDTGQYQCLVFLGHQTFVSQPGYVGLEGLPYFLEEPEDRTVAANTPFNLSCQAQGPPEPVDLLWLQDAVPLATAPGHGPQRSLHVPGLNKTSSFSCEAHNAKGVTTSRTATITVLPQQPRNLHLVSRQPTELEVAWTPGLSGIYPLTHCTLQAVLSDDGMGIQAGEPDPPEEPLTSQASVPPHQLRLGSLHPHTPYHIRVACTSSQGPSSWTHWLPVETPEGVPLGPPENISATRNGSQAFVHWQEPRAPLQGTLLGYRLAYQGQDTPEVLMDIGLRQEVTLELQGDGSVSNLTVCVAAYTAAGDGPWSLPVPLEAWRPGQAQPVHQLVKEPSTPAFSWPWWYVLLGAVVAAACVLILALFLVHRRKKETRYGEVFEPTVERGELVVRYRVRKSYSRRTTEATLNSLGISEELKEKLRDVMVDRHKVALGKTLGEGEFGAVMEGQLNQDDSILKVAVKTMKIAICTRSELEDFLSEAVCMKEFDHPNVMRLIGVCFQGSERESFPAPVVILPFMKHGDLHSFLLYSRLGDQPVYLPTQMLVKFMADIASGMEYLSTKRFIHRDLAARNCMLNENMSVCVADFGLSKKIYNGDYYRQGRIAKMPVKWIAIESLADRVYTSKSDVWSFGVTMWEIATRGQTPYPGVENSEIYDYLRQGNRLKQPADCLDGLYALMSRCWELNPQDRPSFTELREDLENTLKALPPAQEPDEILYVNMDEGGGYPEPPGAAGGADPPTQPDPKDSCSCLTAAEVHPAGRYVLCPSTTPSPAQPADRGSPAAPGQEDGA

G-361 = test: Antiproliferative activity against human G-361 cells assessed as growth inhibition incubated at 10 uM for 24 hrs by MTT assay relative to control; type: functional; conditions: read-out: GI
[15] = target: Cyclin-dependent kinase 2 (Homo sapiens, UniProt P24941); test: Inhibition of CDK2 (unknown origin) by FRET assay
MDA-PATC53 [16] = test: Induction of cell cycle arrest in human MDA-PATC53 cells assessed as accumulation of cells at S phase incubated at IC50 for 24 hrs measured by flow cytometric analysis; type: functional, cell-based
[17] = target: Serine/threonine-protein kinase B-raf (Homo sapiens, UniProt P15056); test: Inhibition of BRAF (unknown origin) by FRET assay
Serine/threonine-protein kinase B-raf, sequence (P15056 whole entry): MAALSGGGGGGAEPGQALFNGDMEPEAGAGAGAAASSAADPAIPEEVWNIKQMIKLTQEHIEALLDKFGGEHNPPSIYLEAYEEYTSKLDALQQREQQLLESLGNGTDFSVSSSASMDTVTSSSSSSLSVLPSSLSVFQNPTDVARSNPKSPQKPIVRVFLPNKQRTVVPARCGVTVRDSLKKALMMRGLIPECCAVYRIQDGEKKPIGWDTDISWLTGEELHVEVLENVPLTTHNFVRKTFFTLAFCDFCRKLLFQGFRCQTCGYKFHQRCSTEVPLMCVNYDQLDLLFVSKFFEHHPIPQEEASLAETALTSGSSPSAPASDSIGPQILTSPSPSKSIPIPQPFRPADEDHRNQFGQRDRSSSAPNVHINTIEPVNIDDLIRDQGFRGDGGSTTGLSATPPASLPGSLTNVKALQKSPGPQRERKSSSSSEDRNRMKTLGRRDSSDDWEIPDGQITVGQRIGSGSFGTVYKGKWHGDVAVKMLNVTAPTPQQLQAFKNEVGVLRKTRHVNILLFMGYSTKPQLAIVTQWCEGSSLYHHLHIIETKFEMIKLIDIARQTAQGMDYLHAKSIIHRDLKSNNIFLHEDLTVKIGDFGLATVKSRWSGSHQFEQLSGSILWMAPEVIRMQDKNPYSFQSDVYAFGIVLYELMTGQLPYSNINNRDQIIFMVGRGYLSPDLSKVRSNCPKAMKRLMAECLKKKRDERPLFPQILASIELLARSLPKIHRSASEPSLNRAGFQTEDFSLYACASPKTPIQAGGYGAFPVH

MCF7 = test: Antiproliferative activity against human MCF7 cells assessed as growth inhibition incubated at 10 uM for 24 hrs by MTT assay relative to control; type: functional; conditions: read-out: GI
[18] = target: Cyclin-dependent kinase 5 (Homo sapiens, UniProt Q00535); test: Inhibition of CDK5 (unknown origin) by FRET assay
Cyclin-dependent kinase 5, sequence (Q00535 whole entry): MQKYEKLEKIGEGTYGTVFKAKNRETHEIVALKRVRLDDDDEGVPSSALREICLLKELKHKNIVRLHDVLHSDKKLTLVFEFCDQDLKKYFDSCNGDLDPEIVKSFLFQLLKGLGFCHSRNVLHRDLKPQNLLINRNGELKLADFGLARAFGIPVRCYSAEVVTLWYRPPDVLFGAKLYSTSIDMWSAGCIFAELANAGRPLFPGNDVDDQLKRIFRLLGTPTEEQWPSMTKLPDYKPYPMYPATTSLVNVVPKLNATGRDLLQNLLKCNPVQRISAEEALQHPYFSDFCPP

Structure (SMILES)	inhibition of growth at 10 µM (MOLT-4)	IC50 [1]	Activity (MDA-PATC53 [2])	IC50 [3]	inhibition of growth at 10 µM (HT-29)	IC50 [4]	Activity [5]	inhibition of growth at 10 µM [6]	inhibition of growth at 10 µM (BT-549)	inhibition of growth at 10 µM (SK-MEL-1)	inhibition of growth at 10 µM (KG-1)	IC50 [7]	IC50 [8]	inhibition of growth at 10 µM (T84)	IC50 [9]	inhibition of growth at 10 µM (A-375)	inhibition of growth at 10 µM [10]	IC50 [11]	Ratio IC50 [12]	Ratio IC50 [13]	further results
COc1ccc(Cc2nnc(N3CCN(C(=S)Nc4cccc(Cl)c4)CC3)c3ccccc23)cc1	89.3%	42.2 nM	Active	2420 nM	85%	8950 nM	14%	93.5%	78%	84.2%	74.2%	730 nM	1000 nM	88.2%	2538 nM	86.4%	97.1%	8550 nM	4.47	8.39	IC50 [14]: 5650 nM; inhibition of growth at 10 µM (G-361): 92.3%; IC50 [15]: 189 nM; Activity (MDA-PATC53 [16]): Active; IC50 [17]: 8140 nM; inhibition of growth at 10 µM (MCF7): 62%; IC50 [18]: 354 nM
COc1ccc(Cc2nnc(N3CCN(C(=O)Nc4ccc(Cl)c(C(F)(F)F)c4)CC3)c3ccccc23)cc1	84.1%	36.8 nM	Active	5260 nM	87.4%	3630 nM	21%	97.6%	85.5%	74%	72.3%	510 nM	740 nM	89.6%	4626 nM	89.2%	99%	5510 nM	8.29	10	IC50 [14]: 5650 nM; inhibition of growth at 10 µM (G-361): 61.4%; IC50 [15]: 305 nM; Activity (MDA-PATC53 [16]): Active; IC50 [17]: 2830 nM; inhibition of growth at 10 µM (MCF7): 71.4%; IC50 [18]: 369 nM
S=C(Nc1cccc(Cl)c1)N1CCN(c2nnc(Cc3ccccc3)c3ccccc23)CC1	85%	44.5 nM	Active	8540 nM	84.3%	8960 nM	16%	95.3%	79.3%	85.4%	69.1%	880 nM	1140 nM	81.7%	7620 nM	76.1%	96.8%	4290 nM	14	3.04	IC50 [14]: 2490 nM; inhibition of growth at 10 µM (G-361): 88%; IC50 [15]: 622 nM; Activity (MDA-PATC53 [16]): Active; IC50 [17]: 1160 nM; inhibition of growth at 10 µM (MCF7): 78.2%; IC50 [18]: 135 nM
